# Reference: US7700637B2, “Organic compounds” (Novartis AG, priority 2003, dated 2010)
row,Compound,melting point [°C]
1,"Cc1oc(-c2ccccc2)nc1COc1ccc(S(=O)(=O)Nc2cccc(Cl)c2C(=O)O)cc1 [Compd 4-1, 6-Chloro-2-[4-(5-methyl-2-phenyl-oxazol-4-ylmethoxy)-benzenesulfonylamino]-benzoic acid]",170 to 172
2,"Cc1oc(-c2ccccc2)nc1COc1ccc(S(=O)(=O)Nc2cc(-c3ccccc3)ccc2C(=O)O)cc1 [Compd 4-2, 3-[4-(5-Methyl-2-phenyl-oxazol-4-ylmethoxy)-benzenesulfonylamino]-biphenyl-4-carboxylic acid]",75 to 77
3,"Cc1oc(-c2ccc(C(F)(F)F)cc2)nc1COc1ccc(S(=O)(=O)Nc2cc(Cl)ccc2C(=O)O)cc1 [Compd 4-3, 4-Chloro-2-{4-[5-methyl-2-(4-trifluoromethyl-phenyl)-oxazol-4-ylmethoxy]-benzene-sulfonylamino}benzoic acid]",191 to 193
4,"Cc1oc(-c2ccccc2)nc1COc1ccc(S(=O)(=O)Nc2cccc(F)c2C(=O)O)cc1 [Compd 4-4, 6-Fluoro-2-[4-(5-methyl-2-phenyl-oxazol-4-ylmethoxy)-benzenesulfonylamino]-benzoic acid]",203 to 205
5,"Cc1oc(-c2ccc(F)cc2)nc1COc1ccc(S(=O)(=O)Nc2cc(Cl)ccc2C(=O)O)cc1 [Compd 4-5, 4-Chloro-2-{4-[2-(4-fluoro-phenyl)-5-methyl-oxazol-4-ylmethoxy]-benzenesulfonylamino}-benzoic acid]",223 to 225
6,"Cc1oc(-c2ccccc2)nc1COc1ccc(S(=O)(=O)Nc2cccc(C(F)(F)F)c2C(=O)O)cc1 [Compd 4-6, 2-[4-(5-Methyl-2-phenyl-oxazol-4-ylmethoxy)-benzenesulfonylamino]-6-trifluoromethyl-benzoic acid]",197 to 198
7,"Cc1oc(-c2ccccc2)nc1COc1ccc(S(=O)(=O)Nc2cc(Cl)ccc2C(=O)O)cc1 [Compd 4-7, 4-Chloro-2-[4-(5-methyl-2-phenyl-oxazol-4-ylmethoxy)-benzenesulfonylamino]-benzoic acid]",98 to 100
8,"Cc1oc(-c2ccc(C(F)(F)F)cc2)nc1COc1ccc(S(=O)(=O)Nc2ccccc2C(=O)O)cc1 [Compd 4-8, 2-{4-[5-Methyl-2-(4-trifluoromethyl-phenyl)-oxazol-4-ylmethoxy]-benzenesulfonylamino}-benzoic acid]",195
9,"Cc1oc(-c2ccccc2)nc1COc1ccc(S(=O)(=O)Nc2cc(F)ccc2C(=O)O)cc1 [Compd 4-10, 4-Fluoro-2-[4-(5-methyl-2-phenyl-oxazol-4-ylmethoxy)-benzenesulfonylamino]-benzoic acid]",212 to 214
10,"Cc1oc(-c2ccccc2)nc1COc1ccc(S(=O)(=O)Nc2ccccc2C(=O)O)cc1 [Compd 4-11, 2-[4-(5-Methyl-2-phenyl-oxazol-4-ylmethoxy)-benzenesulfonylamino]-benzoic acid]",195 to 198
11,"Cc1ccc(C(=O)O)c(NS(=O)(=O)c2ccc(OCc3nc(-c4ccccc4)oc3C)cc2)c1 [Compd 4-12, 4-Methyl-2-[4-(5-methyl-2-phenyl-oxazol-4-ylmethoxy)-benzenesulfonylamino]-benzoic acid]",207 to 208
12,"Cc1oc(-c2ccccc2)nc1COc1ccc(S(=O)(=O)Nc2ccc(F)cc2C(=O)O)cc1 [Compd 4-14, 5-Fluoro-2-[4-(5-methyl-2-phenyl-oxazol-4-ylmethoxy)-benzenesulfonylamino]-benzoic acid]",213 to 215
13,"Cc1oc(-c2ccccc2)nc1COc1ccc(S(=O)(=O)Nc2ccc(Cl)cc2C(=O)O)cc1 [Compd 4-15, 5-Chloro-2-[4-(5-methyl-2-phenyl-oxazol-4-ylmethoxy)-benzenesulfonylamino]-benzoic acid]",207 to 208
14,"COc1ccc(NS(=O)(=O)c2ccc(OCc3nc(-c4ccccc4)oc3C)cc2)c(C(=O)O)c1 [Compd 4-16, 5-Methoxy-2-[4-(5-methyl-2-phenyl-oxazol-4-ylmethoxy)-benzenesulfonylamino]-benzoic acid]",190 to 194
15,"Cc1ccc(NS(=O)(=O)c2ccc(OCc3nc(-c4ccccc4)oc3C)cc2)c(C(=O)O)c1 [Compd 4-17, 5-Methyl-2-[4-(5-methyl-2-phenyl-oxazol-4-ylmethoxy)-benzenesulfonylamino]-benzoic acid]",185 to 187
16,"CC(=O)Nc1ccc(NS(=O)(=O)c2ccc(OCc3nc(-c4ccccc4)oc3C)cc2)c(C(=O)O)c1 [Compd 4-18, 5-Acetylamino-2-[4-(5-methyl-2-phenyl-oxazol-4-ylmethoxy)-benzenesulfonylamino]-benzoic acid]",89 to 90
17,"Cc1oc(-c2ccccc2)nc1CCOc1ccc(S(=O)(=O)Nc2cc(-c3ccccc3)ccc2C(=O)O)cc1 [Compd 4-19, 3-{4-[2-(5-Methyl-2-phenyl-oxazol-4-yl)-ethoxy]-benzenesulfonylamino}-biphenyl-4-carboxylic acid]",177 to 179
18,"COc1ccc(NS(=O)(=O)c2ccc(OCCc3nc(-c4ccccc4)oc3C)cc2)c(C(=O)O)c1OC [Compd 4-20, 2,3-Dimethoxy-6-{4-[2-(5-methyl-2-phenyl-oxazol-4-yl)-ethoxy]-benzenesulfonyl-amino}benzoic acid]",59 to 60
19,"Cc1oc(-c2ccccc2)nc1CCOc1ccc(S(=O)(=O)Nc2ccccc2C(=O)O)cc1 [Compd 4-21, 2-{4-[2-(5-Methyl-2-phenyl-oxazol-4-yl)-ethoxy]-benzenesulfonylamino}-benzoic acid]",136 to 138
20,"COc1cc(NS(=O)(=O)c2ccc(OCc3nc(-c4ccccc4)oc3C)cc2)c(C(=O)O)cc1OC [Compd 4-24, 4,5-Dimethoxy-2-[4-(5-methyl-2-phenyl-oxazol-4-ylmethoxy)-benzenesulfonylamino]-benzoic acid]",206 to 207
21,"Cc1cc(C)c(NS(=O)(=O)c2ccc(OCc3nc(-c4ccccc4)oc3C)cc2)c(C(=O)O)c1 [Compd 4-25, 3,5-Dimethyl-2-[4-(5-methyl-2-phenyl-oxazol-4-ylmethoxy)-benzenesulfonylamino]-benzoic acid]",165 to 166
22,"Cc1oc(-c2ccccc2)nc1COc1ccc(S(=O)(=O)Nc2cc3ccccc3cc2C(=O)O)cc1 [Compd 4-26, 3-[4-(5-Methyl-2-phenyl-oxazol-4-ylmethoxy)-benzenesulfonylamino]-naphthalene-2-carboxylic acid]",234 to 236
23,"O=C(NCc1ccc(C(F)(F)F)cc1)c1ccc(S(=O)(=O)Nc2ccccc2C(=O)O)cc1 [Compd 6-1, 2-[4-(4-Trifluoromethyl-benzylcarbamoyl)-benzenesulfonylamino]-benzoic acid]",330 to 335

# Further lines, results first:
row,melting point [°C],Compound
1,58 to 60,"COc1cc(OC)c(C(=O)O)c(OCc2ccc(OCCc3nc(-c4ccccc4)oc3C)cc2)c1 [Compd 21-1, 2,4-Dimethoxy-6-{4-[2-(5-methyl-2-phenyl-oxazol-4-yl)-ethoxy]-benzyloxy}-benzoic acid]"
2,182 to 183,"COc1cc(OC)c(C(=O)O)c(OCc2ccc(OCc3nc(-c4ccccc4)oc3C)cc2)c1 [Compd 21-2, 2,4-Dimethoxy-6-[4-(5-methyl-2-phenyl-oxazol-4-ylmethoxy)-benzyloxy]-benzoic acid]"
3,182 to 183,"CCCOc1cc(C)c(C(=O)O)c(OCc2ccc(OCc3nc(-c4ccccc4)oc3C)cc2)c1 [Compd 21-3, 2-Methyl-6-[4-(5-methyl-2-phenyl-oxazol-4-ylmethoxy)-benzyloxy]-4-propoxy-benzoic acid]"
4,162 to 163,"Cc1oc(-c2ccccc2)nc1CCOc1ccc(COc2cc(C(F)(F)F)cc(C(F)(F)F)c2C(=O)O)cc1 [Compd 21-4, 2-{4-[2-(5-Methyl-2-phenyl-oxazol-4-yl)-ethoxy]-benzyloxy}-4,6-bis-trifluoromethyl-benzoic acid]"
5,190 to 191,"Cc1oc(-c2ccccc2)nc1COc1ccc(COc2cc(C(F)(F)F)cc(C(F)(F)F)c2C(=O)O)cc1 [Compd 21-5, 2-[4-(5-Methyl-2-phenyl-oxazol-4-ylmethoxy)-benzyloxy]-4,6-bis-trifluoromethyl-benzoic acid]"
6,167 to 168,"Cc1oc(-c2ccccc2)nc1COc1ccc(COc2cccc(F)c2C(=O)O)cc1 [Compd 21-6, 2-Fluoro-6-[4-(5-methyl-2-phenyl-oxazol-4-ylmethoxy)-benzyloxy]-benzoic acid]"
7,157 to 158,"Cc1cc(OC(C)C)cc(OCc2ccc(OCCc3nc(-c4ccccc4)oc3C)cc2)c1C(=O)O [Compd 21-7, 4-Isopropoxy-2-methyl-6-{4-[2-(5-methyl-2-phenyl-oxazol-4-yl)-ethoxy]-benzyloxy}-benzoic acid]"
8,142 to 143,"Cc1oc(-c2ccccc2)nc1CCOc1ccc(COc2cccc(F)c2C(=O)O)cc1 [Compd 21-8, 2-Fluoro-6-{4-[2-(5-methyl-2-phenyl-oxazol-4-yl)-ethoxy]-benzyloxy}-benzoic acid]"
9,180 to 181,"COc1cccc(OCc2ccc(OCc3nc(-c4ccccc4)oc3C)cc2)c1C(=O)O [Compd 21-9, 2-Methoxy-6-[4-(5-methyl-2-phenyl-oxazol-4-ylmethoxy)-benzyloxy]-benzoic acid]"
10,183 to 184,"COc1cccc(OCc2ccc(OCCc3nc(-c4ccccc4)oc3C)cc2)c1C(=O)O [Compd 21-10, 2-Methoxy-6-{4-[2-(5-methyl-2-phenyl-oxazolyl)-ethoxy]-benzyloxy}-benzoic acid]"
11,155 to 156,"Cc1oc(-c2ccccc2)nc1COc1ccc(COc2cc(Cl)ccc2C(=O)O)cc1 [Compd 21-11, 4-Chloro-2-[4-(5-methyl-2-phenyl-oxazol-4-ylmethoxy)-benzyloxy]-benzoic acid]"
12,148 to 149,"Cc1oc(-c2ccccc2)nc1CCOc1ccc(COc2cc(Cl)ccc2C(=O)O)cc1 [Compd 21-12, 4-Chloro-2-{4-[2-(5-methyl-2-phenyl-oxazol-4-yl)-ethoxy]-benzyloxy}benzoic acid]"
13,151,"Cc1oc(-c2ccccc2)nc1COCc1ccc(COc2cc(Cl)ccc2C(=O)O)cc1 [Compd 21-19, 4-Chloro-2-[4-(5-methyl-2-phenyl-oxazol-4-ylmethoxymethyl)-benzyloxy]-benzoic acid]"
